Like-named read-outs stand apart in the source and are kept apart here.
What was measured:
OCT2 = molecular target: T1, OCT2 (Homo sapiens, UniProt O15244); test: Inhibition of model substrate uptake in OCT2-overexpressing HEK293 cells; conditions: for selectivity ratio at 5 min: human, OCT2-overexpressing HEK293 cells, pH 7.4
T1 sequence (O15244 1-555): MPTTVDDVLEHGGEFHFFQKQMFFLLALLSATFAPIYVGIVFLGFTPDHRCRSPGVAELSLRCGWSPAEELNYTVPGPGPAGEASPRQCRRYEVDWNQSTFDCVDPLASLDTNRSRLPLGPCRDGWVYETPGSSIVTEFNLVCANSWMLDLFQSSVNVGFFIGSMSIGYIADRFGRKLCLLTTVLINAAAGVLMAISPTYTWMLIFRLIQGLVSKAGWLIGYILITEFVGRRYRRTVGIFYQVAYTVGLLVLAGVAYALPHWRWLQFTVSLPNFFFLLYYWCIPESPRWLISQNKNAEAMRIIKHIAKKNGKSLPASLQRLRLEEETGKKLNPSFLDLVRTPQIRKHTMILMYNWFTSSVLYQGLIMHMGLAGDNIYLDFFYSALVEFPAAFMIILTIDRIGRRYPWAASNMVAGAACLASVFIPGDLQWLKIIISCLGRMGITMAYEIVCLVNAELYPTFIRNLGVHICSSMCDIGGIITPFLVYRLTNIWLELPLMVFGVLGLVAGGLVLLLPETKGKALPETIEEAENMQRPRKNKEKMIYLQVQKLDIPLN
Method: (§1) All experiments were carried out in transporter-overexpressing HEK293 cells. OCT1-, OCT2-, NET-, DAT-, and SERT-overexpressing cells as well as the empty-vector transfected control cell line were generated as described earlier,[26]−[28] whereas the OCT3-overexpressing HEK293 cells were generous gift of from Drs. Koepsell and Gorbulev (University of Würzburg, Germany). All cells were cultivated in Dulbecco’s modified Eagle’s medium (DMEM) supplemented with 10% (v/v) FCS, penicillin (100 U/mL), and streptomycin (100 μg/mL) and kept in culture for no longer than 30 passages.
(§2) As for the transport experiments, 300,000 HEK293 cells were plated in poly-D-lysine-coated 24-well plates 2 days ahead of the experiment. On every plate, two wells of empty vector (EV)-transfected cells were used as a control to account for the passive influx of the model substrate, and two wells of transporter-overexpressing cells were used to determine the noninhibited uptake of the model substrate. Cells were initially washed once with 37 °C HBSS+ and then incubated with 2 μM model substrate (0.2 μM for MPP^+ uptake by MATs) with and without 20 μM inhibitor for 5 min. For concentration-dependent inhibition experiments, the cells were incubated with increasing inhibitor concentrations. The incubation was terminated by aspiration of the buffer before cells were washed twice with ice-cold HBSS+ and lysed in 80% acetonitrile. Cell lysates were transferred into a black 96-well plate for the fluorescence measurement of ASP^+ or used for sample preparation for LC–MS/MS analysis. […] Fluorescence quantification was performed in technical duplicates.
(§3) Transporter-mediated net uptake was calculated as the difference between uptake in transporter-overexpressing cells and that in the empty-vector-transfected control. […] Vmax is the maximum transport velocity, while Km is defined as the substance concentration that is required to reach half of vmax. The ratio of vmax over Km is termed intrinsic clearance Clint. For inhibition experiments, the transport activity was calculated by using the following equation [drawing 1]
(§4) SubstrateEV refers to the passive uptake of model substrates into the control cells and substratenoninhibited is the uptake in transporter-overexpressing cells without the presence of any inhibitor. The percent inhibition values are then calculated as described in the following [drawing 2]
(§5) For concentration inhibition experiments, the transporter activity was plotted against the log10 of inhibitor concentrations, and the data were fitted by the following equation to determine IC50 values [drawing 3]
(§6) Y refers to the transporter activity, whereas Ymax is the maximum and Ymin is the minimal transporter activity. X is the log10 of inhibitor concentrations, IC50 is the half-maximal inhibitory concentration, and hill slope is the slope factor.

OCT3 = molecular target: T2, OCT3 (Homo sapiens, UniProt O75751); test: Inhibition of model substrate uptake in OCT3-overexpressing HEK293 cells; assay type: cell-based; conditions: for x-fold Stereoselectivity: ratio of the IC50 values of the two enantiomers of the drug
T2 construct: expressed in transfected cells; host or cells: HEK293
T2 sequence (O75751 1-556): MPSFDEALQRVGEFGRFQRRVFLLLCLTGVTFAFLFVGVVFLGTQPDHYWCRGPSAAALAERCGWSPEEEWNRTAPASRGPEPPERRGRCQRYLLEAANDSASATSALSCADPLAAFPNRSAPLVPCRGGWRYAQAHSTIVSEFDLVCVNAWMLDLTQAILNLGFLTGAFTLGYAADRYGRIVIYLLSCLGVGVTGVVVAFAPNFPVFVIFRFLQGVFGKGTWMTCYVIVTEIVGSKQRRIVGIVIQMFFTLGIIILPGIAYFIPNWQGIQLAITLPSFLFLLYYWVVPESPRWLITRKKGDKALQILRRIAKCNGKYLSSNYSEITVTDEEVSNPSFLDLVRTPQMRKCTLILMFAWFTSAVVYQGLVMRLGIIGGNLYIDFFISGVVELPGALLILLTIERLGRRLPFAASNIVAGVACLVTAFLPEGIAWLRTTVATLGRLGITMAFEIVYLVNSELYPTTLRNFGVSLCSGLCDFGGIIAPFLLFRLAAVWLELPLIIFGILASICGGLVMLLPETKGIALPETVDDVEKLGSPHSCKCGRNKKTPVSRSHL
Method: as §1, §2, §3, §4, §5, §6

OCT1 = molecular target: T3, OCT1 (Homo sapiens, UniProt O15245); test: Inhibition of model substrate uptake in OCT1-overexpressing HEK293 cells; assay type: cell-based; design: expressed in transfected cells; host or cells: HEK293
T3 sequence (O15245 1-554): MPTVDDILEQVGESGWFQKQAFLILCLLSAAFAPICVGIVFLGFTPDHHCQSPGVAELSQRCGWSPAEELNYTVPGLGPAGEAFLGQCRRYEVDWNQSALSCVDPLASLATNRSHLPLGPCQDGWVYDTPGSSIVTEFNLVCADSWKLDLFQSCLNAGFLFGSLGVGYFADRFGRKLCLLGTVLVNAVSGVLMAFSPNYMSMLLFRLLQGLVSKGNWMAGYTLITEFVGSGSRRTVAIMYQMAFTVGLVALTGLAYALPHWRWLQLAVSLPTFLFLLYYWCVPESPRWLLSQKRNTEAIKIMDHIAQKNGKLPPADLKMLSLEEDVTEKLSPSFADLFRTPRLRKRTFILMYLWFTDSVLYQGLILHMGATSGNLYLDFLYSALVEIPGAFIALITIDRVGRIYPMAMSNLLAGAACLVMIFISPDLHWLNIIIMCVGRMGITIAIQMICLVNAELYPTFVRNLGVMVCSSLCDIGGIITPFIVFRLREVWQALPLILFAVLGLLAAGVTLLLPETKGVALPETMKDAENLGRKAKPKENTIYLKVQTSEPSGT
Method: Koepsell and Gorbulev (University of Würzburg, Germany).
Fluorescence quantification was performed in technical duplicates.

[1] = OCT3, 20 μM inhibitor, 2 μM ASP+, 5 min
[2] = OCT3, 20 μM inhibitor, 2 μM (S)-zolmitriptan, 5 min
[3] = OCT3, 20 μM inhibitor, 2 μM (S,S)-ethambutol, 5 min

Structure (SMILES): CCN1CCCC1CNC(=O)c1cc(S(=O)(=O)CC)c(N)cc1OC (stereo not drawn) [Amisulpride]
- difference between enantiomers in the inhibition of OCT2 (in words) (OCT2; ASP+ screening, 20 μM inhibitor): noticeable differences
- x-fold Stereoselectivity (OCT2; OCT2, ratio of the IC50 values of the two enantiomers of the drug): 3.2 fold

Structure (SMILES): C1CCN2C[C@@H]3C[C@@H](CN4CCCC[C@@H]34)[C@H]2C1 [(-)-Sparteine]
- (S)-Zolmitriptan inhibition [%] (OCT3): 11.0
- (S,S)-Ethambutol inhibition [%] (OCT3): 20.7
- ASP+ inhibition [%] (OCT3; [1]): 0.4%

Structure (SMILES): COc1ccc(CCN(C)CCC[C@](C#N)(c2ccc(OC)c(OC)c2)C(C)C)cc1OC [(R)-Verapamil]
- inhibition at 20 µM (OCT3; HEK293, 5 min, read-out: (S)-Zolmitriptan inhibition [%]): 42.1%
- inhibition at 20 µM (OCT3; HEK293, 5 min, read-out: (S,S)-Ethambutol inhibition [%]): 48.9%
- inhibition at 20 µM (OCT3; HEK293, OCT3, 20 μM inhibitor, 2 μM ASP+, 5 min, read-out: ASP+ inhibition [%]): 8.2%

Structure (SMILES): CN(C)CCc1c[nH]c2ccc(C[C@H]3COC(=O)N3)cc12 [Zolmitriptan]
- x-fold Stereoselectivity (OCT3; OCT3): 25 fold
- stereoselective inhibition of OCT3 (in words) (OCT3; ethambutol and zolmitriptan as substrates, 20 μM inhibitor): stereoselective inhibition

Structure (SMILES): CCN[C@@H](C)Cc1cccc(C(F)(F)F)c1 [(S)-Fenfluramine]
- (S)-Zolmitriptan inhibition [%] (OCT3): 51.9%
- (S,S)-Ethambutol inhibition [%] (OCT3): 40.7%
- ASP+ inhibition [%] (OCT3; [1]): 12.7%
- ASP+ inhibition [%] (OCT1; OCT1, 20 μM inhibitor, 2 μM ASP+, 5 min, mean of three experiments): 41.9%
- Sumatriptan inhibition [%] (OCT1; human, pH 7.4): 87.1%

Structure (SMILES): CCCNC[C@H](O)COc1ccccc1C(=O)CCc1ccccc1 [(S)-Propafenone]
- (S)-Zolmitriptan inhibition [%] (OCT3; [2]): 62.0%
- (S,S)-Ethambutol inhibition [%] (OCT3; [3]): 76.4%
- ASP+ inhibition [%] (OCT3; [1]): 23.8%

Structure (SMILES): CNCC[C@H](Oc1ccccc1C)c1ccccc1 [(S)-Tomoxetine]
- (S)-Zolmitriptan inhibition [%] (OCT3; [2]): 21.1%
- (S,S)-Ethambutol inhibition [%] (OCT3; [3]): -5.7%
- ASP+ inhibition [%] (OCT3; [1]): -8.3%
- IC50 (OCT2; IC50, OCT2, Table S5, 2 μM ASP+ as model substrate, 5 min): 17.1 µM

Structure (SMILES): CC(C)(C)NC[C@H](O)COc1nsnc1N1CCOCC1 [Timolol]
- selectivity ratio at 5 min (OCT2): 2

Structure (SMILES): O=C1c2cccc3c2[C@H](CCC3)CN1[C@@H]1CN2CCC1CC2 [Palonosetron]
- x-fold Stereoselectivity (OCT3; OCT3): 2.5 fold
- stereoselectivity in the inhibition of OCT2 (in words) (OCT2; ASP+ uptake, reduced inhibitor concentrations (Figure S4)): relevant stereoselectivity
- selectivity ratio at 5 min (OCT2): 3.2

Structure (SMILES): CN(C)CCOC(C)(c1ccccc1)c1ccccn1 (stereo not drawn) [Doxylamine]
- selectivity ratio at 5 min (OCT1; human, OCT1-overexpressing HEK293 cells, pH 7.4, OCT1, ratio of the IC50 values of the two enantiomers of the drug, read-out: x-fold Stereoselectivity): 1.4

Source: publication PMC10698726 (Molecular Pharmaceutics, 2023)
